ChEMBL document CHEMBL1201862, “PubChem BioAssay data set” (2004)
Active and inactive are the calls of the source.

Experiments:
[1] = inhibitors of firefly luciferase expression or activity, dose response, H4 neuroglioma cells, luminescence (AID 1990); assay type: functional, cell-based
[2] = luciferase reporter signal reduction – luminescence, H4-C neuroglioblastoma cells, dose response (AID 2458); assay type: functional, cell-based;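 also: H4 neuroglioblastoma cells stably carrying a luciferase reporter gene fusion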
cells = assay type: functional, cell-based
[3] = Luminescence Cell-Based Dose Response HTS to Identify Inhibitors of 5'UTR Stem-Loop Driven Prion Protein mRNA Translation in H4 Neuroglioblastoma Cells. [Related pubchem assays: 1827 (Project Summary), 1813 (Primary HTS)]; assay type: functional
[4] = inhibitors of SNCA 5'UTR-driven reporter translation, confirmation, H4 neuroglioma cells, luminescence (AID 1988); assay type: functional, cell-based
[5] = inhibitors of SNCA 5'UTR-driven translation, confirmation, luminescence, H4 neuroglioblastoma cells, dose confirmation (AID 2454); assay type: functional, cell-based;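 also: H4 neuroglioblastoma cells carrying an alpha-synuclein 5'UTR luciferase reporter; potency for inhibition of the luciferase signal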
[6] = molecular target: Photoreceptor-specific nuclear receptor (Homo sapiens, UniProt Q9Y5X4); assay type: functional, cell-based;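 also: CHO-S cells with Gal4-NCOR and VP16-NR2E3 two-hybrid luciferase reporter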
[7] = molecular target: Epstein-Barr nuclear antigen 1 (Epstein-Barr virus (strain B95-8) (HHV-4) (Human herpesvirus 4), UniProt P03211); experiment: EBNA-1 inhibitors, dose response, biochemical, fluorescence polarization, 1536-well (AID 2381); design: species or system human gammaherpesvirus 4;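 also: fluorescence polarization of a Cy5 DNA probe bound by EBNA-1 protein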
[8] = molecular target: Lytic switch protein BZLF1 (Epstein-Barr virus (strain B95-8) (HHV-4) (Human herpesvirus 4), UniProt P03206); experiment: EBV ZTA inhibitors, dose response, counter-screen for EBNA-1 inhibitor project, biochemical, fluorescence polarization, Epstein-Barr virus, 1536-well (AID 2377); design: species or system human gammaherpesvirus 4;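 also: fluorescence polarization of Cy5-labelled ZRE DNA probe bound by purified Zta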
[9] = A High Throughput Confirmatory Assay used to Identify Novel Compounds that Inhibit Mycobacterium Tuberculosis in the absence of Glycerol.; assay type: functional
HeLa = experiment: Cytotoxicity counterscreen assay for transcriptional activators of heat shock protein 70 (Hsp70). [Related pubchem assays: 1203, 1252 ]; assay type: functional; conditions: Homo sapiens;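 also: cells exposed to compound for 16 hours before readout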
Paired box protein Pax-8 = Paired box protein Pax-8 (Homo sapiens, UniProt Q06710); experiment: inhibitors of PAX8-driven TPO luciferase reporter, dose response, RMG-I cells, cherry-pick (AID 687027); assay type: functional, cell-based;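 also: luciferase reporter driven by Pax8 target thyroperoxidase promoter measured by SteadyGlo luminescence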
[10] = inhibitors of CMV-promoter luciferase reporter, dose response, counter-screen for Pax8 inhibitor project, cell-based, HEK293, luminescence, dry powder (AID 743020); assay type: functional
Estrogen receptor = molecular target: T1, Estrogen receptor (Homo sapiens, UniProt P03372);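 also: potency for inhibiting coactivator peptide recruitment to the receptor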
T1 sequence (P03372 whole entry): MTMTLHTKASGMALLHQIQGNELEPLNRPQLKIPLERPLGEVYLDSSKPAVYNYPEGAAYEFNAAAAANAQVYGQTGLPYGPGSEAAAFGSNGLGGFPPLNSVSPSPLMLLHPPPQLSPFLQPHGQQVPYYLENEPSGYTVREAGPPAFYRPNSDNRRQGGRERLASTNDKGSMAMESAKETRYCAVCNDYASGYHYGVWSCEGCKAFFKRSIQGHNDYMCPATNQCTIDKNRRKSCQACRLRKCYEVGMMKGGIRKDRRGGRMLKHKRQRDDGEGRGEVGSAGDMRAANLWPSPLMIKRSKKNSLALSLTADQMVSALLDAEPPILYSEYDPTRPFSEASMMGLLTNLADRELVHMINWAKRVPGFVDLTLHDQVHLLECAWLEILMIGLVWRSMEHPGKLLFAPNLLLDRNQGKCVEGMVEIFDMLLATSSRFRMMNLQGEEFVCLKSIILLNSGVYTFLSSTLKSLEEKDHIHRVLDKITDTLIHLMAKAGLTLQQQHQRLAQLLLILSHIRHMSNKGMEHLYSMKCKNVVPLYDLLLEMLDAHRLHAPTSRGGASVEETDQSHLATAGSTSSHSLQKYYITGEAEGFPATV

Estrogen receptor beta [11] = molecular target: T2, Estrogen receptor beta (Homo sapiens, UniProt Q92731);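 also: recombinant ER-beta bound to coactivator SRC1 peptide in presence of estradiol agonist; inhibitors block coactivator peptide binding and lower the FRET signal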
Estrogen receptor beta [12] = molecular target: T2, Estrogen receptor beta; experiment: ERβ–SRC-3 coactivator interaction inhibitors, confirmation, orthogonal assay, biochemical, ELISA, streptavidin-HRP readout (AID 1060)
[13] = molecular target: T3, Neuropeptide Y receptor type 2 (Homo sapiens, UniProt P49146); experiment: NPY-Y2 antagonist potency, selectivity check, dose response, counter-screen for NPY-Y1 antagonist project, cell-based (AID 1278); assay type: functional
T3 sequence (P49146 whole entry): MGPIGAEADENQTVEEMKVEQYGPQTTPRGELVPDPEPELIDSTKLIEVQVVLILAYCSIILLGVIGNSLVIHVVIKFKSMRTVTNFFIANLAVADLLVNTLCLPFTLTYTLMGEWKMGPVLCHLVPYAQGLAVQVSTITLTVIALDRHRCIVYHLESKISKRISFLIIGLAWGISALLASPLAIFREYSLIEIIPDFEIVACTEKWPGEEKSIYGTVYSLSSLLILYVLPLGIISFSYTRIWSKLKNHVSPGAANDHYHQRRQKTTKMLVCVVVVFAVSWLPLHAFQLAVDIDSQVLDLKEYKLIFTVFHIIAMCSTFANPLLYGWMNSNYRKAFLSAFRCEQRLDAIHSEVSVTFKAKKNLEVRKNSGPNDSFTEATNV

[14] = molecular target: T4, Neuropeptide Y receptor type 1 (Homo sapiens, UniProt P25929); experiment: NPY-Y1 receptor antagonist potency, dose response, cell-based (AID 1277); assay type: functional
T4 sequence (P25929 whole entry): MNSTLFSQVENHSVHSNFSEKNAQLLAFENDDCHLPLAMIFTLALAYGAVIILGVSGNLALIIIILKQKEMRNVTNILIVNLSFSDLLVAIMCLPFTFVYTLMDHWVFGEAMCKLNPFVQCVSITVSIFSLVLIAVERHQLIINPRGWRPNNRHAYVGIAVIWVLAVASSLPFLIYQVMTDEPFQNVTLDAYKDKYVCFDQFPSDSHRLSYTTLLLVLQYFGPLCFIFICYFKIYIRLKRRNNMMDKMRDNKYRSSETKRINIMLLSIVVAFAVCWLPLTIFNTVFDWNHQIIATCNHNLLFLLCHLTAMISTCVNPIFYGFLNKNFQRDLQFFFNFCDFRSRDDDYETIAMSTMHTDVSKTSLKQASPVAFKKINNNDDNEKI

[15] = molecular target: T5, Rac GTPase-activating protein 1 (Homo sapiens, UniProt Q9H0H5); experiment: MgcRacGAP GTPase-activating activity inhibitors, confirmation, biochemical, ADP Hunter fluorescence, primary and confirmatory (AID 624330); assay type: functional
T5 sequence (Q9H0H5 whole entry): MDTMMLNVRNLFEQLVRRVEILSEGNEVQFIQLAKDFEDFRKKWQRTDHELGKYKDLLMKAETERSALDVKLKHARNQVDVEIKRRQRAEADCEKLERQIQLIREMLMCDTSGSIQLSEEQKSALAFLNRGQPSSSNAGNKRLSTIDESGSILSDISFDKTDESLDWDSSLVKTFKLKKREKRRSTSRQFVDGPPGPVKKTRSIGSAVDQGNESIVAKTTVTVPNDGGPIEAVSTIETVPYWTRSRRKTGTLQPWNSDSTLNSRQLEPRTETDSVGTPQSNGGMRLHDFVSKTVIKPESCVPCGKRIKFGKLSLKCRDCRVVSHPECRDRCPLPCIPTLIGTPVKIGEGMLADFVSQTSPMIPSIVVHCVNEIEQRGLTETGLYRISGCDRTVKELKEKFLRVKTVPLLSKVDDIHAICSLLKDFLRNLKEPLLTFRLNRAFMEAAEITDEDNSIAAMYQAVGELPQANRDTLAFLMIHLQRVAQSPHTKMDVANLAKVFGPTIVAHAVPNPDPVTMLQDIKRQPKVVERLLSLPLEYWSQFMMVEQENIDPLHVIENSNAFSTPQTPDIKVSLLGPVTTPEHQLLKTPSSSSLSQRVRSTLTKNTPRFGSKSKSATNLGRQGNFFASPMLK

T2 sequence (Q92731 whole entry): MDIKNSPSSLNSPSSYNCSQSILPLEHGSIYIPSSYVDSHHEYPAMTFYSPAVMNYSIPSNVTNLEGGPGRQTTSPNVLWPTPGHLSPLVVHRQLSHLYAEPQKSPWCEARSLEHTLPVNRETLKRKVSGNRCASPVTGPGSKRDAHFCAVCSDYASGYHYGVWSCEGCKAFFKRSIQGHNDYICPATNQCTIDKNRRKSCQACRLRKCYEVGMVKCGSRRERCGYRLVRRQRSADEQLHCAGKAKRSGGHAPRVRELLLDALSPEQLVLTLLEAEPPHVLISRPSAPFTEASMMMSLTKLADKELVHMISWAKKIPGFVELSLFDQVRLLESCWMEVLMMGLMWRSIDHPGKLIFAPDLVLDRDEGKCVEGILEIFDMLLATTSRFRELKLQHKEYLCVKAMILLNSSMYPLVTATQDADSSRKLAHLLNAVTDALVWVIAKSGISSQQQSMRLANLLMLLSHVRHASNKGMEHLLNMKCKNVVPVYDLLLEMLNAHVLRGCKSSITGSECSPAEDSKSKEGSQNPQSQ
Sequence of Lytic switch protein BZLF1 (P03206 whole entry): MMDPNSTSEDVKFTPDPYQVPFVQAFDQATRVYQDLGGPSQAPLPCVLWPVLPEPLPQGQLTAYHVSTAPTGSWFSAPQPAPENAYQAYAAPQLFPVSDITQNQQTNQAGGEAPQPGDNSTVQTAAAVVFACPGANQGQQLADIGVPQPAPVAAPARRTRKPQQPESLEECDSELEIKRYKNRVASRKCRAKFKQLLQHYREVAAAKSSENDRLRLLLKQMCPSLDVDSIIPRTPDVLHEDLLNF
Sequence of Photoreceptor-specific nuclear receptor (Q9Y5X4 whole entry, the tested form may be a part): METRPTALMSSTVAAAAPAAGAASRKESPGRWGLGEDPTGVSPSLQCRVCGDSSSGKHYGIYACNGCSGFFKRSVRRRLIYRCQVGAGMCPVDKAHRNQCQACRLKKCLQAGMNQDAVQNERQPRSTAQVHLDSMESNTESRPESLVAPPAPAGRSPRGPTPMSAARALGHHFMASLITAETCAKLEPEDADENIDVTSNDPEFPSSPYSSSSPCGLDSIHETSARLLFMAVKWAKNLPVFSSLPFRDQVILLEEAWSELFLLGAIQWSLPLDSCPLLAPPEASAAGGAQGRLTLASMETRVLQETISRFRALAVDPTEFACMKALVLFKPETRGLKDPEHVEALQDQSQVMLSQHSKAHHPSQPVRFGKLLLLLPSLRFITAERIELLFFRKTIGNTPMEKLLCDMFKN
Sequence of Epstein-Barr nuclear antigen 1 (P03211 whole entry): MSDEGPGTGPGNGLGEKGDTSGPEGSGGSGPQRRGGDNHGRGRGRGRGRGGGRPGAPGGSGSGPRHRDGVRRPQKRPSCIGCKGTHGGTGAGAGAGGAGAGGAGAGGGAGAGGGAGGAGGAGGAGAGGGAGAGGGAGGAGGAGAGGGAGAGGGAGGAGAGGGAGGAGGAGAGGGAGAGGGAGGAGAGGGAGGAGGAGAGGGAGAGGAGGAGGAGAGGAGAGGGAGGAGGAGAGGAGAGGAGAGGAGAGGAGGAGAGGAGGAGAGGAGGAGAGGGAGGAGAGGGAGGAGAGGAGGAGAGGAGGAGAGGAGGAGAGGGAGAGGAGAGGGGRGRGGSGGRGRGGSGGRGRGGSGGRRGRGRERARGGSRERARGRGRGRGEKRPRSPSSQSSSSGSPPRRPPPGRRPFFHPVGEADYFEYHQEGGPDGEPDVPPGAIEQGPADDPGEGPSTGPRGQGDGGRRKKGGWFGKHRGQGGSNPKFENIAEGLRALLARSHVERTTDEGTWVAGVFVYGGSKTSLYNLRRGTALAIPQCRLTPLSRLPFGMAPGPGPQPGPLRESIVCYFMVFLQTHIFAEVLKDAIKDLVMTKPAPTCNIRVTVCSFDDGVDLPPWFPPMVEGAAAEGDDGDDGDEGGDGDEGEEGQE
Sequence of Paired box protein Pax-8 (Q06710 whole entry): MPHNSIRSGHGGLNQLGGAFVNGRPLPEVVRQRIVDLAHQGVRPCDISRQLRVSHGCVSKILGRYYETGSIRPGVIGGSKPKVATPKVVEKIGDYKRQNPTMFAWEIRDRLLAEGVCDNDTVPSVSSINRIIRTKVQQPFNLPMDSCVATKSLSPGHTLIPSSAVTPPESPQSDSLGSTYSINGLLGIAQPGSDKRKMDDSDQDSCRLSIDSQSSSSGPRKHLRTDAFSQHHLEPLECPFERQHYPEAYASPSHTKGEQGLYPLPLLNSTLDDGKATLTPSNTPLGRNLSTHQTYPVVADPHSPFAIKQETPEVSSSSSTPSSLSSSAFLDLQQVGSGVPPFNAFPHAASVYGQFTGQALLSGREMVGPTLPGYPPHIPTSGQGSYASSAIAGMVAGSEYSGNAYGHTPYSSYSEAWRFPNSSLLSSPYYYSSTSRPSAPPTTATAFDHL

Cc1ccsc1C(=O)OCC(=O)c1cc(C)n(CC2CCCO2)c1C (centres undefined)
EC50 [1]: 8.04 µM (active) | EC50 [2]: 0.9 µM (active) | EC50 (cells): 3.3 µM (active) | EC50 [3]: 0.325 µM (active) | EC50 [4]: < 0.1 µM (active) | EC50 [5]: 0.322 µM (active) | IC50 [6]: 6.9 µM (active)

COc1ccc(CN=C(S)N2CCN(S(=O)(=O)c3cccc(F)c3)CC2)cc1
IC50 [7]: 5.94 µM (active) | IC50 [8]: > 111 µM (not active)

O=C(CCN1C(=O)/C(=C/c2ccccc2)SC1=S)Nc1ccccn1
IC50 [9]: > 100 µM (active)

CCCC(=O)N1CCN(c2ccc(NC(=O)c3ccc([N+](=O)[O-])o3)cc2)CC1
CC50 (HeLa): 6.29 µM (active) | AC50 (Paired box protein Pax-8): 5.17 µM (active) | AC50 [10]: 19.9 µM (active)

Cc1cc(C)c(S(=O)(=O)/N=C2\C=CC(=O)C(Cl)=C2)c(C)c1
IC50 (Estrogen receptor): 10.3 µM (active) | IC50 (Estrogen receptor beta [11]): 4.69 µM (active) | IC50 (Estrogen receptor beta [12]): 16.5 µM (not active)

COc1ccc(Oc2c(C)n[nH]c2-c2ccc(O)cc2O)cc1
IC50 [13]: > 35 µM (not active) | IC50 [14]: > 35 µM (not active) | IC50 [15]: 47.4 µM (active)
